This data set in a line: AUC in beagle dog at 10 mg/kg, iv bolus dose. Further details: dose 10 mg/kg, route intravenous. The conditions noted are these: plasma. The data set is classed as ADME, organism-based, Canis lupus familiaris.

The source of these data is ChEMBL document CHEMBL3351598, “Strategies for the modulation of phase II metabolism in a series of PKCε inhibitors” (Bioorg Med Chem Lett, 2014).

Take `N#CC1(c2cc(CCO)cc(-c3ccnc4[nH]nc(C(F)(F)F)c34)c2)CC1`: the AUC is 130 ng·h/mL.

Take `N#CC1(c2cc(C[C@@H](O)CO)cc(-c3ccnc4[nH]nc(C(F)(F)F)c34)c2)CC1`: the AUC stood at 4400 ng·h/mL.
